# Results reported in publication PMC6089342 (ACS chemical biology, 2017).
# Legend:
# PARP14 MD2 = molecular target: T1, PARP14 MD2 (Homo sapiens, UniProt Q460N5); test: Isothermal titration calorimetry; assay type: binding; details: negative control, Figure 1D
# T1 sequence (Q460N5 994-1191): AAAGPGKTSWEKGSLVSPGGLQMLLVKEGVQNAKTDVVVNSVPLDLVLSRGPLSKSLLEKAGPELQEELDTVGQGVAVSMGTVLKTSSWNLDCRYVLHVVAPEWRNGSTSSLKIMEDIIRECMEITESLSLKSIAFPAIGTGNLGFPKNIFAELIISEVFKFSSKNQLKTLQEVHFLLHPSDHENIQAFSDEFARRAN
# YFP-PARP14 MD2 = molecular target: T2, YFP-PARP14 MD2 (Homo sapiens, UniProt Q460N5); test: Laser micro-irradiation assay, recruitment of YFP-PARP14 MD2 to DNA damage sites; assay type: cell-based; details: U-2 OS cells
# T2 sequence (Q460N5 1003-1190 limits assumed): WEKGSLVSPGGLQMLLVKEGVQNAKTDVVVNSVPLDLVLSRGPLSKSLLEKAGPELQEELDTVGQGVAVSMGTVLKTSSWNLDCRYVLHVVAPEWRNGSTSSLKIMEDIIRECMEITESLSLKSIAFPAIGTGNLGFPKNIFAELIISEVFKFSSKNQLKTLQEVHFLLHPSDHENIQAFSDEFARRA
binding to PARP14 MD2 (PARP14 MD2),SMILES,"PARP14 MD2 recruitment to laser-induced DNA damage sites (YFP-PARP14 MD2; negative control, concentration not given)","PARP14 MD2 recruitment to laser-induced DNA damage sites (YFP-PARP14 MD2; 10 µM, pre-treated 1 hour)"
did not bind,CC(=O)Nc1ccncc1-c1cccc2c1[nH]c1ccccc12 [MnK2-68],did not interfere with PARP14 MD2 recruitment,
,"O=C(c1cc(Cc2n[nH]c(=O)c3ccccc23)ccc1F)N1CCN(C(=O)C2CC2)CC1 [Olaparib, reference compound]",,recruitment of the macrodomain could not be detected
